# Test results taken from patent publication US20120269797A1, “METHOD FOR INHIBITING THE MATURATION OF DENDRITIC CELLS” (priority 2009, published 2012).
# How the values were obtained:
# mature DCs = assay: mixed leukocyte reaction (MLR) assay, T cell stimulatory capacity of mature DCs; type: cell-based; details: see FIGS. 3 and 4
# From the text: The T cell stimulatory capacity of mature DCs can be tested in vitro by means of the so-called “mixed leukocyte reaction” (MLR) assay. […] This functional test therefore reflects the phenotypic effects of the PI treatment—namely the blockade of full maturation of the DCs—very well.
# [1] = test system: human DC/T cell co-cultures; assay: cytokine production in human DC/T cell co-cultures (CBA technology); type: cell-based
# Description: During DC-mediated T cell stimulation, the production of cytokines (among them IFN, IL-2, IL-6, TNF) takes place, which can be detected in the culture top fraction. […] Immature human […] were incubated with Velcade®, matured for 48 hours, and subsequently cultivated together with allogeneic human T cells for another 72 hours. Subsequently, cell culture top fractions were taken and the release of pro-inflammatory cytokines was analyzed by means of CBA technology. […] The control (mock) remained untreated.
# [2] = test system: murine DCs generated ex vivo
# Description: In order to test the effect of PIs also in vivo, Velcade® was applied to mice in vivo, then bone marrow was isolated and the typical bone marrow DCs were generated from this.
# C57B1/6 mice were injected with 0.75 mg/kg Velcade® i.v. three times. The injection took place within five days, with an interval of one day, in each instance. An hour after the last injection, removal of the bone marrow from femur and tibia took place to generate the murine DCs. On Day 8 of cultivation, the cells were matured with LPS. On the subsequent day, the expression of the surface molecules was investigated by means of FACS analysis.
# [3] = test system: murine (DC:T) cell co-cultures; assay: cytokine and chemokine production in murine DC/T cell co-cultures; type: cell-based; details: 72 hours, different concentrations; FIG. 5
# Description: The production of INFy and MCP-1 was determined from cell culture top fractions of murine (DC:T) cell co-cultures. For this purpose, DCs were incubated with allogeneic T cells, in the presence of different concentrations of Velcade®, for 72 hours. […] The control (mock) remained untreated.
# murine DCs = assay: maturation of murine dendritic cells, surface molecules by FACS analysis; type: cell-based; details: different concentrations, Day 8 to Day 10, matured last 16 hours with LPS; FIG. 1
# Description: Murine DCs were incubated with different concentrations of the proteasome inhibitor Velcade® from Day 8 to Day 10, and were matured during the last 16 hours, in the presence of LPS. In order to determine the phenotypic DC maturation, in other words the increase in the expression level of specific cell surface molecules, the cells were subsequently characterized using monoclonal antibodies and FACS analysis. […] However, only completely matured DCs are able to induce potent immune responses. The control (mock) remained untreated.
# human DCs [4] = details: two concentrations added Day 5, matured two days with maturation cocktail; FIG. 2
# Description: Immature human DCs were mixed with two different concentrations of Velcade® on Day 5, and subsequently matured for another two days using the maturation cocktail. Subsequently, the expression of the surface molecules that are typical for the maturation of human DCs was analyzed. […] The control (mock) remained untreated.
# [5] = test system: murine DCs / allogeneic murine T cells; assay: DC-mediated T cell proliferation, allogeneic murine T cells with TNF-matured murine DCs; type: cell-based; details: 72 hours, three different concentrations; FIG. 3
# Description: Allogeneic murine T cells were incubated with TNF-matured murine DCs for 72 hours, in the presence of three different concentrations of Velcade®.
# human DCs [6] = assay: DC-mediated T cell stimulation by MLR assay, human DCs; type: cell-based; details: DCs incubated during maturation; FIG. 4
# Description: The T cell stimulatory capacity of mature DCs can be tested in vitro by means of the so-called “mixed leukocyte reaction” (MLR) assay. […] Human DCs were incubated with Velcade® during maturation and subsequently, the DC-mediated T cell stimulation was investigated by means of MLR assay.
# [7] = 0.75 mg/kg i.v. three times, FIG. 7b
compound,measurement,setting,value
CC(C)C[C@H](NC(=O)[C@H](Cc1ccccc1)NC(=O)c1cnccn1)B(O)O [Velcade®],DC-mediated T cell stimulation,mature DCs,able to block DC-mediated T cell stimulation
same,"cytokine production (IFN, IL-2, IL-6, TNF) during DC-mediated T cell stimulation","[1]; culture top fraction, summary of FIGS. 5 and 6 (murine and human)","able to block this cytokine production, as a function of concentration"
same,"secretion of IL-2, IL-6, INFy and TNF","[1]; matured 48 hours, co-culture with allogeneic T cells 72 hours, FIG. 6",clearly reduced secretion
same,"surface expression of CD25, CD40, CD80 and CD86","[2]; 0.75 mg/kg i.v. three times, DCs matured with LPS on Day 8, FIG. 7a",reduction in the surface expression
same,expression of MHC Class II molecules,[2]; [7],also reduced
same,percentage of MHC II highly expressing cells:MHC II interm. expressing cells,[2]; [7],shifted in favor of the MCH II interm. expressing cells
same,"population of the mature DCs (CD40, CD25, CD83 highly expressing)","[2]; applied in vivo to mice, TNF-stimulated and LPS-stimulated DCs, FIG. 7",reduces the population of the mature DCs
same,expression of INFy and MCP-1 in cell culture top fractions,[3],clearly reduced expression
same,"surface expression of CD25, CD40, CD80, CD86 and CD83",murine DCs,very clearly reduces
same,"expression of CD80, CCR7, CD25, MHC I and CD83",human DCs [4],clear reduction
same,DC-mediated T cell proliferation,[5],reduces the DC-mediated T cell proliferation in a manner that is dependent on dose
same,DC-mediated T cell stimulation (stimulatory capacity of DCs),human DCs [6],clear reduction in their stimulatory capacity
